Results from paper PMC12838479 (Fluids and Barriers of the CNS, 2025).

Key:
[1] = system: human induced pluripotent stem cell (iPSC)-derived brain endothelial-like cells (iBECs); experiment: In vitro monolayer iBEC permeability (Transwell leakage) versus TEER; type: in vitro ADME; settings: iBEC monolayers, all TEER levels
Method: In Vitro BBB model: Differentiation of iBECs: The varied TEERs of iBECs were achieved during initial experiments that optimized seeding densities for differentiation of the GM25256 iPSC line. iBECs were differentiated from the GM25256 cell line using protocols described by Hollmann et al.. These resulting iBECs have been previously characterized to have many BEC traits including expression of high TEER levels and GLUT1, CLDN5, VE-Cad, PECAM-1, ZO-1, and OCLN proteins. Briefly, iPSCs were grown in E8 Medium on Matrigel in 6-well plates. When colonies were large and nearly touching, but prior to confluence, iPSCs were washed once with DPBS (Thermo Fisher Scientific) and incubated with Accutase (Stem Cell Technologies) for 3 min to yield a single cell suspension. Cells were collected via centrifugation, resuspended in E8, and counted using a hemocytometer. […] To assess barrier properties, TEER was measured 24 h after subculture using an EVOM2 voltohmeter with an EndOhm cup chamber (World Precision Instruments). […] TEER was measured approximately every 24 h thereafter. […]
Leakage was further assessed after 1–14 days post-subculture by placing in the input medium, consisting of HESFM + 1% BSA, 0.1 µCi ^14C-sucrose and 1 million CPM ^99mTc-DTPA or 3 million CPM ^99mTc-albumin per Transwell. […] Then, the radioactivity was counted in a Tricarb beta counter (Perkin Elmer) to measure ^14C-sucrose levels. […]

BBB [2] = experiment: Multiple-time regression analysis of BBB uptake (Ki, Vi) in control and LPS-treated mice; type: in vivo
Text: (§1) where t is the time between i.v. injection and blood draw, Cp is the level of radioactivity in serum (expressed as %Inj/ml), Cpt is the level of radioactivity in serum at time t, and τ is the dummy variable for time. Exposure time corrects for the clearance of the compound of interest from blood. The Y-intercept measures Vi (in units of µl/g), which is the vascular space and initial luminal binding at t = 0. Ki and Vi values are reported with their standard errors and the number of mice included in the linear portion of the regression curve. Slopes and intercepts were compared statistically with program in Prism 10.0 (GraphPad Inc, San Diego, CA). The percent of the injected dose that entered each g of brain (%Inj/g) was calculated after washout of the vascular space using the equation: […]

BBB [3] = experiment: Single time point (10 min) brain/serum ratio after iv co-injection in control and LPS-treated mice; settings: for brain region permeability change: 10 min after iv injection, one-way ANOVA per region; for increase in brain/serum ratio (leakiness): three dose LPS vs control
Text: (§2) Treatment with LPS: Male CD-1 mice were purchased from Charles River and studied at 8–12 weeks of age. All animal studies were approved by the Institutional Animal Care and Use Committee of the Veterans Affairs Puget Sound Health Care System, an IACUC approved institution, in compliance with the Association for Assessment and Accreditation of Laboratory Animal Care International. Lipopolysaccharide (LPS) derived from Salmonella enterica subtype typhimurium (#L6511) was purchased from Sigma Chemical Company. Mice were given IP injections of approximately 0.1 ml of saline at 0, 6, or 24 h with LPS included in no injections, in only the single 0 h injection, or in all (0, 6, and 24 h) injections at a dose of 3 mg/kg LPS. Mice were studied 28 h after the 0 h injection (4 h after the last injection).
(§3) After a specified time, the abdomen was opened and arterial blood obtained from the abdominal aorta and immediately the thorax was opened, the descending thoracic aorta was clamped, both jugular veins were severed, the left ventricle of the heart was cannulated, and 20 ml of cold LR-BSA perfused in 60 s via the left ventricle of the heart in order to wash out the vascular space of the brain. After this, brains were collected and counted in a gamma counter. […] Brain/serum ratios are expressed in units of µl/g.
(§4) In some studies, mice were studied only at 10 min after the jugular injection of radioactivity. For multiple-time regression analysis, mice were sacrificed at 1, 2, 5, 10, 15, and 30 min after the jugular injection.

BBB [4] = experiment: Percent of the injected dose that entered each g of brain (%Inj/g), 10 min; type: in vivo, mice; settings: for %Inj/g-brain: 10 min; for increase in %Inj/g-brain: three injections of LPS vs control
Text: as §1
where cpm/g is the level of radioactivity in the brain tissue, g is the weight of the brain tissue, and cpmi is the amount of radioactivity injected intravenously.

[5] = Single time point (10 min) brain/serum ratio after iv co-injection in control and LPS-treated mice; settings: male, CD-1, mouse, in vivo
Text: as §2, §3, §4

[6] = 10 min, DTPA and albumin co-injected

| Compound | in vitro permeability (Pe) compared with simultaneously studied sucrose [1] | Vi (vascular space and initial luminal binding) (BBB [2]; control mice) | Vi (vascular space and initial luminal binding) (BBB [2]; single injection of LPS) | Vi (vascular space and initial luminal binding) (BBB [2]; three injections of LPS) | increase in brain/serum ratio (leakiness) (BBB [3]; [6]) | %Inj/g-brain (BBB [4]; control mice) | increase in %Inj/g-brain (BBB [4]) | %Inj/g-brain (BBB [4]; three injections of LPS) | further results |
| --- | --- | --- | --- | --- | --- | --- | --- | --- | --- |
| O=C(O)CN(CCN(CC(=O)O)CC(=O)O)CCN(CC(=O)O)CC(=O)O (99mTc complex, metal not drawn) [DTPA, Diethylenetriaminepentaacetic acid] | essentially identical in vitro results | 1.62 ± 0.29 µL/g | 1.43 ± 0.334 µL/g | 1.487 ± 1.104 µL/g | 136% | 0.035 %Inj/g-brain | 117% | 0.0760 %Inj/g-brain | mean percent increase in permeability of 4 sessions (BBB [3]; 3 dose injection of LPS, DTPA and sucrose co-injected): 79.2 +/- 16%; brain region permeability change (BBB [3]; 3 injections of LPS): all regions except the olfactory bulb had a significant increase; detection of BBB disruption (BBB [3]; 10 min, DTPA and albumin co-injected, LPSx1 and LPSx3): showed disruption at the single dose of LPS as well as at the three doses; control brain/serum ratio relative to albumin (BBB [3]; 10 min, simultaneous injection of DTPA and albumin, control mice): about 5 fold; % change of brain/serum ratio relative to respective Control (BBB [3]; LPSx1, Day 1): 12%; % change of brain/serum ratio relative to respective Control (BBB [3]; LPSx1, Day 2): -0.025%; % change of brain/serum ratio relative to respective Control (BBB [3]; LPSx1, Repeat Day 2): 29%; % change of brain/serum ratio relative to respective Control (BBB [3]; LPSx3, Day 1): 79%; % change of brain/serum ratio relative to respective Control (BBB [3]; LPSx3, Day 2): 57%; BBB disruption, combined data of 4 sessions (BBB [3]; one injection of LPS): did not disrupt the BBB; brain region permeability change (BBB [3]; single injection of LPS): No brain region had a statistically significant increase in permeability; increase in permeation, combined data of 4 sessions (BBB [3]; three injections of LPS): 69% |
| bovine serum albumin | much lower penetration than sucrose at all TEER levels | 0.245 ± 0.0431 µL/g | 0.197 ± 0.0438 µL/g | 0.325 ± 0.0893 µL/g | 111% | 0.026 %Inj/g-brain | 81% | 0.0490 %Inj/g-brain |  |
| OC[C@H]1O[C@@](CO)(O[C@H]2O[C@H](CO)[C@@H](O)[C@H](O)[C@H]2O)[C@@H](O)[C@@H]1O [sucrose] |  | 8.43 ± 1.26 µL/g | 16.2 µL/g | 14.5 ± 4.82 µL/g |  |  |  |  | Kp at 10 min [5]: 0.00402 to 0.00518 |
